Measured values from US11207312B2, “Metallo-beta-lactamase inhibitors and methods of use thereof” (priority 2017, dated 2021).

Legend:
NDM-1 = NDM-1 (Klebsiella pneumoniae, UniProt C7C422); experiment: biochemical; assay type: biochemical; settings: CCF2-FA fluorescence assay, 2 hours at 25° C.
Method: (§1) The Class B enzyme activities were measured in the presence of the test inhibitor in a fluorescence assay against a commercially available substrate consisting of a cephalosporin core linking 7-hydroxycoumarin to fluorescein (CCF2-FA). The enzyme (NDM-1, IMP-1 or VIM-1) and the substrate were diluted in 100 mM KH2PO4 buffer (pH 7) containing 0.005% Tween-20 and 10 μM ZnSO4. In the assay, the final concentration of enzyme was 1 pM, 2 pM and 30 pM for NDM-1, IMP-1 and VIM-1, respectively, and the final concentration of CCF2-FA was 1.25 μM. The test inhibitor was dissolved in dimethylsulfoxide and diluted 1:50 in the assay, resulting in a final concentration range of 20 μM to 0.00063 μM. In a 384-well microplate, the test inhibitor was incubated with the metallo-β-lactamase enzyme and the substrate for 2 hours at 25° C. Fluorescence at 460 nm following excitation at 405 nm was measured. The IC50 value was determined from semi-logarithmic plots of enzyme inhibition versus inhibitor concentration, with a curve generated using a 4-parameter fit.

VIM-1 = VIM-1 (Pseudomonas aeruginosa (strain ATCC 15692 / DSM 22644 / CIP 104116 / JCM 14847 / LMG 12228 / 1C / PRS 101 / PAO1), UniProt A0A0F7KYQ8); experiment: biochemical; settings: CCF2-FA fluorescence assay, 2 hours at 25° C.; read-out: VIM1 IC50
Method: as §1

IMP-1 = IMP-1 (Serratia marcescens, UniProt P52699); experiment: biochemical; settings: CCF2-FA fluorescence assay, 2 hours at 25° C.; read-out: IMP1 IC50
Sequence of IMP-1 (P52699 whole entry, looked up, species assumed): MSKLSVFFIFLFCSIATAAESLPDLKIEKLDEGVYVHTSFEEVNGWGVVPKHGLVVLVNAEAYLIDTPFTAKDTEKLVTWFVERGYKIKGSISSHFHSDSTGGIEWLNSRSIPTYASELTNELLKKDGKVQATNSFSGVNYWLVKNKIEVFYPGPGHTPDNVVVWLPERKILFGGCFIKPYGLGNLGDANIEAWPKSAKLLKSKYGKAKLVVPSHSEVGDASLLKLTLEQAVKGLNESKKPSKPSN
Method: as §1

[1] = tested on: P. aeruginosa MB9798 (efflux+, IMP-1 plasmid); settings: for MB9798 MITC95 P. aeruginosa uM Efflux WT: efflux + (MB9798) strain, imipenem at 2 μg/mL, in the presence of a class A, C, D serine β-lactamase inhibitor closely related to relebactam; for Efflux ratio: fold difference between efflux+ (MB9798) and efflux− (MB9799) strains
Source text: (§2) The strain background is Pseudomonas aeruginosa PAO1. A wild-type (M135919) and an isogenic strain in which multiple efflux pumps have been disrupted genetically were used. The MBL IMP-1, obtained from a clinical isolate was introduced into the strain pair by the following process:
(§3) The plasmid DNA was transformed into parental MB5919 (oprD+, efflux+, inducible AmpC) and MB5890 (oprD+, efflux−, inducible AmpC) isogenic strains by electroporation.
(§4) The strain set was then used as a pair to determine the effect of metallo-β-lactamase inhibitors of Formula I on the MIC of imipenem and/or ceftazidime. A fixed concentration of antibiotic is included in standard microbroth MIC tests, usually at the CLSI breakpoint concentration, A fixed amount of a class A/C beta-lactamase inhibitor is also included to inhibit the resident Pseudomonas AmpC enzyme. A serial titration of the metallo-β-lactamase inhibitor was included and the concentration of metallo-β-lactamase inhibitor which restores susceptibility of the strain to the included antibiotic was recorded. That concentration of metallo-β-lactamase inhibitor was then compared between the two strains to determine the fold difference between the efflux+(MB9798) and efflux−(MI39799) strains, which indicates the extent to which the MBLi is subject to efflux.

VIM-2 = VIM-2 (Escherichia coli, UniProt Q5U7L7); experiment: biochemical; settings: CCF2-FA fluorescence assay; read-out: VIM2 IC50
[2] = tested on: Serratia marcescens expressing IMP-1 (CL5741); assay type: cell-based; settings: with imipenem 1 μg/ml; 95% inhibition of bacterial growth
Method: (§5) The bacterial strains tested included the clinical strains Escherichia coil expressing NDM-1 (CLB30005, CLB30016), Serratia marcescens expressing IMP-1 (CL5741), and Klebsiella pneumoniae expressing VIM-1 (H-LMA599644). Inhibitor activity was measured in the presence and absence of imipenem in a 384-well microplate.
(§6) The clinical strains CLB30016, CL5741 and IHMA599644 were grown on trypticase soy agar containing 5% sheep's blood. The bacteria on agar plates were incubated at 35° C. with humidity overnight. The following day, individual colonies from each clinical strain were picked and resuspended in 5 ml saline to attain an OD600 of […], for CLB30016, C15741 and IHMA599644, respectively. These were further diluted 1:100 into 1.1× CAMHB and used to inoculate the test wells as described below.
(§7) Imipenem in 10 mM 3-(N-morpholino)propanesulfonic acid (MOPS, pH 7) was stored in single use aliquots at −80° C. […] On the day of the assay, 4 μl of antibiotic was added to 45 μl of bacteria followed by 1 μl of test compound and mixed by pipetting and with an orbital shaker. The concentration of antibiotic used in the assay was 1 μg/ml. Microplates were covered and incubated at 35° C. for 22 hours to 24 hours. At the end of the incubation, absorbance was determined using a spectrophotometer. The synergistic concentration of MBLI was determined by identifying the lowest concentration of test compound in the presence of a given concentration of antibiotic that was required to inhibit 95% of the growth of the bacteria. The results for Examples 1-209 are reported in Table 1, expressed as the concentration of compound that potentiated the action of antibiotic (imipenem) affecting 95% inhibition of bacterial growth (MITC95).

[3] = tested on: Escherichia coli expressing NDM-1 (CLB30016); assay type: cell-based; settings: with imipenem 1 μg/ml; 95% inhibition of bacterial growth
Method: as §5, §6, §7

[4] = tested on: Klebsiella pneumoniae expressing VIM-1 (IHMA599644); assay type: cell-based; settings: with imipenem 1 μg/ml; 95% inhibition of bacterial growth
Method: as §5, §6, §7

[5] = tested on: P. aeruginosa MB9799 (efflux-, IMP-1 plasmid); assay type: cell-based, Pseudomonas aeruginosa; settings: efflux − (MB9799) strain; imipenem at 2 μg/mL; in the presence of a class A, C, D serine β-lactamase inhibitor closely related to relebactam
Source text: as §2, §3, §4

Sequence of NDM-1 (C7C422 whole entry, looked up, species assumed): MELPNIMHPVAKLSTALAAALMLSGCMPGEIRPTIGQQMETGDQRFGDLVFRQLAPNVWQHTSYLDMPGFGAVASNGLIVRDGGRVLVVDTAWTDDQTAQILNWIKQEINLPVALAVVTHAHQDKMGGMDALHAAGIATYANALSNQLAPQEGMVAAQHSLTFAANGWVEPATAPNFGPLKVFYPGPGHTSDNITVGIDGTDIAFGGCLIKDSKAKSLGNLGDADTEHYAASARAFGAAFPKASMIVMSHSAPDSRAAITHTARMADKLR

| SMILES | IC50 (NDM-1) [nM] | IC50 (VIM-1) [nM] | IC50 (IMP-1) [nM] | MB9798 MITC95 P. aeruginosa uM Efflux WT [1] [µM] | Efflux ratio [1] | IC50 (VIM-2) [nM] | CL5741 S. marcescens MITC95 IMP [2] [µM] | CLB30016 E. coli MITC95 NDM [3] [µM] | IHMA599644 K. pneumoniae MITC95 VIM [4] [µM] | MB9799 MITC95 P. aeruginosa uM Efflux Mutant [5] [µM] |
| --- | --- | --- | --- | --- | --- | --- | --- | --- | --- | --- |
| NC[C@@H](O)CNS(=O)(=O)c1ccc(N2CCC(C(N)CO)CC2)c(-c2nn[nH]n2)c1S(N)(=O)=O (mixture of isomers) [Example 182, 4-(4-(1-Amino-2-hydroxyethyl)piperidin-1-yl)-N1-((R)-3-amino-2-hydroxypropyl)-3-(2H-tetrazol-5-yl)benzene-1,2-disulfonamide] | 3.77 | 0.27 | 4 | 0.78 | 1.00 | 3.82 | 0.78 | 0.39 | 1.56 | 0.78 |
| C[C@H](CN)NS(=O)(=O)c1ccc(N2CC[C@@H](N)[C@@H](F)C2)c(-c2nn[nH]n2)c1S(N)(=O)=O (racemic) [Example 5] | 0.96 | 0.13 | 1.81 | 0.78 | 2.00 | 2.54 | 0.20 | 0.10 | 0.78 | 0.39 |
| NC[C@@H](O)CNS(=O)(=O)c1ccc(N2CC[C@@H](CN)[C@@H](F)C2)c(-c2nn[nH]n2)c1S(N)(=O)=O (racemic) [Example 6] | 1.12 | 0.17 | 3.38 | 0.78 | 2.00 | 4.19 | 0.20 | 0.20 | 0.78 | 0.39 |
| NC[C@@H]1CCN(c2ccc(S(=O)(=O)N[C@@H]3CCNC3)c(S(N)(=O)=O)c2-c2nn[nH]n2)C[C@@H]1F (racemic) [Example 7] | 0.68 | 0.24 | 3.49 | 0.78 | 2.00 | 4.46 | 0.39 | 0.20 | 0.78 | 0.39 |
| C[C@H](CN)NS(=O)(=O)c1ccc(N2CC[C@@H](CN)[C@@H](F)C2)c(-c2nn[nH]n2)c1S(N)(=O)=O (racemic) [Example 8] | 0.19 | 0.07 | 1.12 | 0.78 | 2.00 | 2.35 | 0.39 | 0.20 | 0.78 | 0.39 |
| NC[C@@H](O)CNS(=O)(=O)c1ccc(N2CCC3(CC2)CNC(=O)OC3)c(-c2nn[nH]n2)c1S(N)(=O)=O [Example 26, (R)-N^1-(3-amino-2-hydroxypropyl)-4-(3-oxo-2-oxa-4,9-diazaspiro[5.5]undecan-9-yl)-3-(2H-tetrazol-5-yl)benzene-1,2-disulfonamide] | – | 0.63 | 1.02 | 6.25 | 2.00 | 2.74 | 6.25 | 12.50 | 12.50 | 3.13 |
| NC[C@@H](O)CNS(=O)(=O)c1ccc(N2CC[C@H](CN)C2)c(-c2nn[nH]n2)c1S(N)(=O)=O [Example 124, N1-((R)-3-amino-2-hydroxypropyl)-4-((R)-3-(aminomethyl)pyrrolidin-1-yl)-3-(2H-tetrazol-5-yl)benzene-1,2-disulfonamide] | – | 3.18 | 23.1 | 3.13 | 2.00 | 37.2 | 0.78 | 0.39 | 0.78 | 1.56 |
| NCC1CCN(c2ccc(S(=O)(=O)N[C@@H]3CCNC3)c(S(N)(=O)=O)c2-c2nn[nH]n2)CCN1 (some centres unmarked) [Example 163] | – | 0.74 | 49 | 6.25 | 2.00 | 52.9 | 1.56 | 0.39 | 1.56 | 3.13 |
| NC[C@@H](O)CNS(=O)(=O)c1ccc(Nc2ncc[nH]2)c(-c2nn[nH]n2)c1S(N)(=O)=O [Example 203, (R)-4-((1H-imidazol-2-yl)amino)-N1-(3-amino-2-hydroxypropyl)-3-(2-tetrazol-5-yl)benzene-1,2-disulfonamide bis(2,2,2-trifluoroacetate)] | – | 8.5 | 26.4 | 3.13 | 2.00 | 19.6 | 0.78 | 0.20 | 0.78 | 1.56 |
